Reference: patent US20230085307A1, “PYRIDAZINONE COMPOUND AND HERBICIDE” (NISSAN CHEMICAL CORPORATION, priority 2019, published 2023)

Tests used:
redroot pigweed = experiment: Test Example 4: herbicidal effect by soil treatment (Table 19, symbol N); type: in vivo, redroot pigweed (Amaranthus retroflexus); details: amount of applied herbicide 320 g/ha
Procedure, shortened: (§1)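 Applied as a water-diluted emulsion, the compound was sprayed onto soil covering newly sown seeds. Evaluation came three weeks after application, in a greenhouse held at 25° C. to 30° C.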

Italian ryegrass [1] = experiment: Test Example 4: herbicidal effect by soil treatment (Table 19, symbol K); type: in vivo, Italian ryegrass (Lolium multiflorum); details: amount of applied herbicide 320 g/ha
Procedure, shortened: as §1

green foxtail [2] = experiment: Test Example 4: herbicidal effect by soil treatment (Table 19, symbol G); type: in vivo, green foxtail (Setaria viridis); details: amount of applied herbicide 320 g/ha
Procedure, shortened: as §1

blackgrass [3] = experiment: Test Example 5: herbicidal effect by foliage application, plastic box (Table 20, symbol J); type: in vivo, blackgrass (Alopecurus myosuroides); details: 320 g/ha; for J: blackgrass, herbicidal effect grade: foliage application, three weeks after application
Procedure, shortened: (§2)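 Sow seeds spot-wise in sterilized diluvial soil; cover with ~1.5 cm soil. Grow 14 days in greenhouse, 25° C. to 30° C. Spray foliage with emulsion diluted to predetermined amount. Rate effect after 3 weeks.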

wild oat [4] = experiment: Test Example 5: herbicidal effect by foliage application, plastic box (Table 20, symbol I); type: in vivo, wild oat (Avena fatua); details: 320 g/ha; for I: wild oat, herbicidal effect grade: foliage application, three weeks after application
Procedure, shortened: as §2

velvetleaf [5] = experiment: Test Example 5: herbicidal effect by foliage application, plastic box (Table 20, symbol M); type: in vivo, velvetleaf (Abutilon theophrasti); details: 320 g/ha; for M: velvetleaf, herbicidal effect grade: foliage application, three weeks after application
Procedure, shortened: as §2

blackgrass [6] = experiment: Test Example 4: herbicidal effect by soil treatment (Table 19, symbol J); type: in vivo, blackgrass (Alopecurus myosuroides); details: amount of applied herbicide 320 g/ha
Procedure, shortened: as §1

wild oat [7] = experiment: Test Example 4: herbicidal effect by soil treatment (Table 19, symbol I); type: in vivo, wild oat (Avena fatua); details: amount of applied herbicide 320 g/ha
Procedure, shortened: as §1

chickweed = experiment: Test Example 5: herbicidal effect by foliage application, plastic box (Table 20, symbol P); type: in vivo, common chickweed (Stellaria media); details: 320 g/ha; for P: chickweed, herbicidal effect grade: foliage application, three weeks after application
Procedure, shortened: as §2

windgrass = experiment: Test Example 5: herbicidal effect by foliage application, plastic box (Table 20, symbol L); type: in vivo, windgrass (Apera spica-venti); details: 320 g/ha; for L: windgrass, herbicidal effect grade: foliage application, three weeks after application
Procedure, shortened: as §2

southern crabgrass = experiment: Test Example 5: herbicidal effect by foliage application, plastic box (Table 20, symbol F); type: in vivo, southern crabgrass (Digitaria ciliaris); details: 320 g/ha; for F: southern crabgrass, herbicidal effect grade: foliage application, three weeks after application
Procedure, shortened: as §2

late watergrass = experiment: Test Example 1: herbicidal activity, application before weed generation under submerged conditions (Table 16, symbol A); type: in vivo, late watergrass (Echinochloa oryzicola); details: amount of applied herbicide 320 g/ha
Procedure, shortened: (§3)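 Alluvial soil was flooded to 4 cm depth, weed seeds were sown mixed and 2.5-leaf rice seedlings were transplanted. On sowing day, the compound's emulsion, diluted in water to a set dose, was applied to the water surface. Plants grew at 25–30 °C and were scored 0–5 after three weeks.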

Japanese bulrush [8] = experiment: Test Example 1: herbicidal activity, application before weed generation under submerged conditions (Table 16, symbol B); type: in vivo, Japanese bulrush (Schoenoplectus juncoides); details: amount of applied herbicide 320 g/ha
Procedure, shortened: as §3

lambsquarters = experiment: Test Example 4: herbicidal effect by soil treatment (Table 19, symbol O); type: in vivo, lambsquarters (Chenopodium album); details: amount of applied herbicide 320 g/ha
Procedure, shortened: as §1

green foxtail [9] = experiment: Test Example 5: herbicidal effect by foliage application, plastic box (Table 20, symbol G); type: in vivo, green foxtail (Setaria viridis); details: 320 g/ha; for G: green foxtail, herbicidal effect grade: foliage application, three weeks after application
Procedure, shortened: as §2

barnyard grass = experiment: Test Example 5: herbicidal effect by foliage application, plastic box (Table 20, symbol H); type: in vivo, barnyard grass (Echinochloa crus-galli); details: 320 g/ha; for H: barnyard grass, herbicidal effect grade: foliage application, three weeks after application
Procedure, shortened: as §2

Italian ryegrass [10] = experiment: Test Example 5: herbicidal effect by foliage application, plastic box (Table 20, symbol K); type: in vivo, Italian ryegrass (Lolium multiflorum); details: 320 g/ha; for K: Italian ryegrass, herbicidal effect grade: foliage application, three weeks after application
Procedure, shortened: as §2

oval-leafed pondweed = experiment: Test Example 2: herbicidal activity, application during weed generation under submerged conditions (Table 17, symbol C); type: in vivo, oval-leafed pondweed (Monochoria vaginalis); details: AAH 320 g/ha; application during weed generation, submerged conditions
Procedure, shortened: (§4)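 Herbicide emulsion, diluted with water to the chosen amount, is applied onto 4 cm floodwater over alluvial soil where the weeds were co-sown and raised at 25–30° C. Application timing: 1–2 leaves. Assessment: three weeks afterwards.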

velvetleaf [11] = experiment: Test Example 4: herbicidal effect by soil treatment (Table 19, symbol M); type: in vivo, velvetleaf (Abutilon theophrasti); details: amount of applied herbicide 320 g/ha
Procedure, shortened: as §1

Japanese bulrush [12] = experiment: Test Example 2: herbicidal activity, application during weed generation under submerged conditions (Table 17, symbol B); type: in vivo, Japanese bulrush (Schoenoplectus juncoides); details: AAH 320 g/ha; application during weed generation, submerged conditions
Procedure, shortened: as §4

persian speedwell = experiment: Test Example 4: herbicidal effect by soil treatment (Table 19, symbol R); type: in vivo, Persian speedwell (Veronica persica); details: amount of applied herbicide 320 g/ha
Procedure, shortened: as §1

[13] = foliage application after 14-day growth, evaluated three weeks after application

SMILES: CCCC(=O)Oc1c(C)nn(C)c(=O)c1-c1c(-c2ccc(OC)cc2)sc2cc(F)ccc12 [3-008]
- herbicidal effect, N: redroot pigweed (redroot pigweed): 5 (Herbicidal rate of 90% or more (almost completely withered))
- herbicidal effect, K: Italian ryegrass (Italian ryegrass [1]): 0 (Herbicidal rate of 5% or less (almost no effect))
- herbicidal effect, G: green foxtail (green foxtail [2]): 0 (Herbicidal rate of 5% or less (almost no effect))
- J: blackgrass, herbicidal effect grade (blackgrass [3]): 1 (Herbicidal rate of 5% or more and less than 20%)
- I: wild oat, herbicidal effect grade (wild oat [4]): 0 (Herbicidal rate of 5% or less (almost no effect))
- M: velvetleaf, herbicidal effect grade (velvetleaf [5]): 5 (Herbicidal rate of 90% or more (almost completely withered))
- herbicidal effect, J: blackgrass (blackgrass [6]): 0 (Herbicidal rate of 5% or less (almost no effect))
- herbicidal effect, I: wild oat (wild oat [7]): 0 (Herbicidal rate of 5% or less (almost no effect))
- P: chickweed, herbicidal effect grade (chickweed): 5 (Herbicidal rate of 90% or more (almost completely withered))
- L: windgrass, herbicidal effect grade (windgrass): 3 (Herbicidal rate of 40% or more and less than 70%)
- F: southern crabgrass, herbicidal effect grade (southern crabgrass): 4 (Herbicidal rate of 70% or more and less than 90%)
- Herbicidal effect, A: late watergrass (late watergrass): 5 (Herbicidal rate of 90% or more (almost completely withered))
- Herbicidal effect, B: Japanese bulrush (Japanese bulrush [8]): 5 (Herbicidal rate of 90% or more (almost completely withered))
- herbicidal effect, O: lambsquarters (lambsquarters): 5 (Herbicidal rate of 90% or more (almost completely withered))
- G: green foxtail, herbicidal effect grade (green foxtail [9]): 3 (Herbicidal rate of 40% or more and less than 70%)
- H: barnyard grass, herbicidal effect grade (barnyard grass): 4 (Herbicidal rate of 70% or more and less than 90%)
- K: Italian ryegrass, herbicidal effect grade (Italian ryegrass [10]): 3 (Herbicidal rate of 40% or more and less than 70%)
- herbicidal effect rating, C: oval-leafed pondweed (oval-leafed pondweed): 4 (Herbicidal rate of 70% or more and less than 90%)
- herbicidal effect, M: velvetleaf (velvetleaf [11]): 0 (Herbicidal rate of 5% or less (almost no effect))
- herbicidal effect rating, B: Japanese bulrush (Japanese bulrush [12]): 2 (Herbicidal rate of 20% or more and less than 40%)
- herbicidal effect, R: persian speedwell (persian speedwell): 5 (Herbicidal rate of 90% or more (almost completely withered))

SMILES: CCOc1cc(F)ccc1-c1sc2cc(C)ccc2c1-c1c(O)c(C)nn(C)c1=O [3-057]
- N: redroot pigweed, herbicidal effect grade (redroot pigweed): 5 (Herbicidal rate of 90% or more (almost completely withered))
- K: Italian ryegrass, herbicidal effect grade (Italian ryegrass [1]): 2 (Herbicidal rate of 20% or more and less than 40%)
- G: green foxtail, herbicidal effect grade (green foxtail [2]): 4 (Herbicidal rate of 70% or more and less than 90%)
- J: blackgrass, herbicidal effect grade (blackgrass [3]): 5 (Herbicidal rate of 90% or more (almost completely withered))
- I: wild oat, herbicidal effect grade (wild oat [4]): 5 (Herbicidal rate of 90% or more (almost completely withered))
- M: velvetleaf, herbicidal effect grade (velvetleaf [5]): 5 (Herbicidal rate of 90% or more (almost completely withered))
- J: blackgrass, herbicidal effect grade (blackgrass [6]): 4 (Herbicidal rate of 70% or more and less than 90%)
- I: wild oat, herbicidal effect grade (wild oat [7]): 3 (Herbicidal rate of 40% or more and less than 70%)
- P: chickweed, herbicidal effect grade (chickweed): 5 (Herbicidal rate of 90% or more (almost completely withered))
- L: windgrass, herbicidal effect grade (windgrass): 5 (Herbicidal rate of 90% or more (almost completely withered))
- F: southern crabgrass, herbicidal effect grade (southern crabgrass): 5 (Herbicidal rate of 90% or more (almost completely withered))
- Herbicidal effect, A: late watergrass (late watergrass): 5 (Herbicidal rate of 90% or more (almost completely withered))
- Herbicidal effect, B: Japanese bulrush (Japanese bulrush [8]): 5 (Herbicidal rate of 90% or more (almost completely withered))
- O: lambsquarters, herbicidal effect grade (lambsquarters): 5 (Herbicidal rate of 90% or more (almost completely withered))
- G: green foxtail, herbicidal effect grade (green foxtail [9]): 5 (Herbicidal rate of 90% or more (almost completely withered))
- H: barnyard grass, herbicidal effect grade (barnyard grass): 5 (Herbicidal rate of 90% or more (almost completely withered))
- K: Italian ryegrass, herbicidal effect grade (Italian ryegrass [10]): 5 (Herbicidal rate of 90% or more (almost completely withered))
- herbicidal effect rating, C: oval-leafed pondweed (oval-leafed pondweed): 3 (Herbicidal rate of 40% or more and less than 70%)
- M: velvetleaf, herbicidal effect grade (velvetleaf [11]): 2 (Herbicidal rate of 20% or more and less than 40%)
- herbicidal effect rating, B: Japanese bulrush (Japanese bulrush [12]): 4 (Herbicidal rate of 70% or more and less than 90%)
- R: persian speedwell, herbicidal effect grade (persian speedwell): 5 (Herbicidal rate of 90% or more (almost completely withered))

SMILES: CCCOc1ccc(-c2sc3c(F)cccc3c2-c2c(OC(=O)CCC)c(C)nn(C)c2=O)cc1 [4-010]
- Herbicidal effect by soil treatment, N: redroot pigweed (redroot pigweed): 4 (Herbicidal rate of 70% or more and less than 90%)
- Herbicidal effect by soil treatment, K: Italian ryegrass (Italian ryegrass [1]): 2 (Herbicidal rate of 20% or more and less than 40%)
- Herbicidal effect by soil treatment, G: green foxtail (green foxtail [2]): 0 (Herbicidal rate of 5% or less (almost no effect))
- herbicidal effect on J: blackgrass (evaluation grade 0-5) (blackgrass [3]; [13]): 4 (Herbicidal rate of 70% or more and less than 90%)
- herbicidal effect on I: wild oat (evaluation grade 0-5) (wild oat [4]; [13]): 0 (Herbicidal rate of 5% or less (almost no effect))
- herbicidal effect on M: velvetleaf (evaluation grade 0-5) (velvetleaf [5]; [13]): 3 (Herbicidal rate of 40% or more and less than 70%)
- Herbicidal effect by soil treatment, J: blackgrass (blackgrass [6]): 0 (Herbicidal rate of 5% or less (almost no effect))
- Herbicidal effect by soil treatment, I: wild oat (wild oat [7]): 0 (Herbicidal rate of 5% or less (almost no effect))
- herbicidal effect on P: chickweed (evaluation grade 0-5) (chickweed; [13]): 5 (Herbicidal rate of 90% or more (almost completely withered))
- herbicidal effect on L: windgrass (evaluation grade 0-5) (windgrass; [13]): 0 (Herbicidal rate of 5% or less (almost no effect))
- herbicidal effect on F: southern crabgrass (evaluation grade 0-5) (southern crabgrass; [13]): 0 (Herbicidal rate of 5% or less (almost no effect))
- Herbicidal effect, A: late watergrass (late watergrass): 3 (Herbicidal rate of 40% or more and less than 70%)
- Herbicidal effect, B: Japanese bulrush (Japanese bulrush [8]): 0 (Herbicidal rate of 5% or less (almost no effect))
- Herbicidal effect by soil treatment, O: lambsquarters (lambsquarters): 3 (Herbicidal rate of 40% or more and less than 70%)
- herbicidal effect on G: green foxtail (evaluation grade 0-5) (green foxtail [9]; [13]): 3 (Herbicidal rate of 40% or more and less than 70%)
- herbicidal effect on H: barnyard grass (evaluation grade 0-5) (barnyard grass; [13]): 5 (Herbicidal rate of 90% or more (almost completely withered))
- herbicidal effect on K: Italian ryegrass (evaluation grade 0-5) (Italian ryegrass [10]; [13]): 4 (Herbicidal rate of 70% or more and less than 90%)
- herbicidal effect rating, C: oval-leafed pondweed (oval-leafed pondweed): 3 (Herbicidal rate of 40% or more and less than 70%)
- Herbicidal effect by soil treatment, M: velvetleaf (velvetleaf [11]): 0 (Herbicidal rate of 5% or less (almost no effect))
- herbicidal effect rating, B: Japanese bulrush (Japanese bulrush [12]): 0 (Herbicidal rate of 5% or less (almost no effect))
- Herbicidal effect by soil treatment, R: persian speedwell (persian speedwell): 3 (Herbicidal rate of 40% or more and less than 70%)
